Results taken from patent publication US20060217340A1, “Methods and products for treating hypertension by modulation of TRPC3 channel activity” (University of Vermont and State Agricultural College, priority 2005, published 2006).

Tests used:
[1] = tested on: cerebral artery SMCs; test: Membrane potential recordings in pressurized cerebral arteries; assay type: cell-based, rat
From the text: (§1) Oligodeoxynucleotide Sequences and Reverse Permeabilization. TRPC6 sense and antisense oligodeoxynucleotides (ODN's) were designed as previously described (Welsh et al 2002 Circ Res 90, 248-250) and were as follows: sense, 5′-[…]-3′ (SEQ ID: 3) and 5′-GCACACGCAGCCTCTTCAC-3′ (SEQ ID: 4) antisense, 5′-[…]-3′ (SEQ ID: 5) and 5′-[…]-3′ (SEQ ID: 6). TRPC3 sense and antisense ODN's were designed based on the rat TRPC3 gene (Ohki et al 2000 J Biol Chem 275: 39055-39060) and are as follows: sense, 5′-[…]-3′ (SEQ ID: 7) and 5′-[…]-3′ (SEQ ID: 8); anti-sense, 5′-[…]-3′ (SEQ ID: 9) and 5′-[…]-3′ (SEQ ID: 10). The last five bases on the 5′ and 3′ end were phosphorothioated in order to limit ODN degradation. For some experiments fluoroscein-isothiocyanate was conjugated to the 5′ end to allow for histological assessment of cellular uptake of the ODNs. All ODNs were synthesized and HPLC purified commercially by Qiagen (Alameda, Calif., USA). Sense and antisense ODN's (2 μM) were introduced into the arterial SMs using a reversible permeabilization procedure (Lesh et al 1995 Circ Res 77,220-230)). The arterial segments were then organ cultured for 3 days in D-MEM/F-12 culture media with L-glutamine (2 mM), penicillin (50 units/ml) and streptomycin (50 μg/ml) prior to use.
(§2) Diameter and membrane potential recordings. Endothelial cell denuded artery segments were mounted on glass pipettes in an arteriograph chamber (Living Systems, Burlington, Vt., USA), pressurized to 20 mmHg (with no flow), and superfused with warm (37° C.), gassed (95% 02/5% CO2) physiological saline solution (PSS) containing (in mM): 119 NaCl, 4.7 KCl, 24 NaHCO3, 0.2 KH2PO4, […], 1.2 MgSO4, 1.6 CaCl2, and 10.6 glucose, pH 7.4. In experiments using Ca^2+-free PSS, CaCl2 was omitted and 3 mM EGTA and 30 μM diltiazem added. In experiments with diacylglycerol induction, 300 μM of the diacylglycerol analogue OAG (1-oleyol-2-acetyl-sn-glycerol) was added. The endothelium was removed as previously described (Sun et al 1993 Endothelium 1, 115-122). To verify endothelial cell removal the arteries were pressurized to 60 mmHg and allowed to develop myogenic tone prior to exposing the vessels to 1 μM UTP. Absence of a dilation or biphasic constrictor response to 1 μM UTP indicated successful endothelial cell removal (Marelli 2001 Am J Physiol Heart Cir Physiol 281, H1759-H1766; Miyagi et al 1996 Br J Pharmacol 118, 847-856). Arterial diameter or membrane potential (Vm) of sense and anti-sense treated arteries was measured in the absence (control) or presence of UTP (concentration range: 0.1 to 10 μM). Membrane potential was measured by inserting a sharp glass electrode (≈100 MΩ resistance) containing 0.5M KCl into the vessel wall. The criteria for successful vascular smooth muscle cell impalement were: (1) a sharp negative Vm deflection on entry; (2) a stable potential for at least 1 minute after entry; and (3) a sharp positive Vm deflection upon removal. Measurements were made using an electrometer (World Precision Instruments) and the data were recorded via computer using Axotape and Dataq software. Arterial diameter was measured using a video dimension analyzer (IonOptix Corporation; Milton, Mass.).

[2] = tested on: pressurized rat cerebral arteries; test: Arterial wall Ca2+ concentration measurement (FURA-2) in isolated arteries; assay type: cell-based; details: for effect on arterial wall Ca2+ or vessel diameter: absence of extracellular Ca2+
Protocol: Diameter and membrane potential recordings. […] In experiments using Ca^2+-free PSS, CaCl2 was omitted and 3 mM EGTA and 30 μM diltiazem added. In experiments with diacylglycerol induction, 300 μM of the diacylglycerol analogue OAG (1-oleyol-2-acetyl-sn-glycerol) was added. […] To verify endothelial cell removal the arteries were pressurized to 60 mmHg and allowed to develop myogenic tone prior to exposing the vessels to 1 μM UTP. […] Arterial diameter or membrane potential (Vm) of sense and anti-sense treated arteries was measured in the absence (control) or presence of UTP (concentration range: 0.1 to 10 μM). Membrane potential was measured by inserting a sharp glass electrode (≈100 MΩ resistance) containing 0.5M KCl into the vessel wall. […] Measurements were made using an electrometer (World Precision Instruments) and the data were recorded via computer using Axotape and Dataq software. Arterial diameter was measured using a video dimension analyzer (IonOptix Corporation; Milton, Mass.).
Ca^2+ concentration measurement in isolated arteries. Mounted arteries were equilibrated in 1.6 m M PSS for 40 minutes at 37° C. (pH 7.4) prior to loading the vascular smooth muscle cells with the Ca^2+-sensitive fluorescent dye, FURA-2. To load the cells, the 1.6 mM PSS was gradually replaced over 5 minutes with HEPES solution (25° C., pH 7.4). A total of 40 μL of a premixed 100 μM FURA-2-acetoxymethyl ester solution (100 μg FURA-2, 200 μL Pluronic acid, 800 μL DMSO) was added directly to the HEPES to give a final concentration of 2 μM FURA-2 AM. Loading continued in the dark at 25° C. (pH 7.4) for 40 minutes. At the end of the loading period, the HEPES was replaced with 1.6 mM PSS (35° C., pH 7.4) and 30 minutes was allowed for complete de-esterification of the FURA-2 AM before [Ca^2+]c measurements were made. FURA-2 fluorescence was measured using a photomultiplier system (IonOptix Corporation; Milton, Mass., USA) in which background-corrected ratios of the 510-nm emission from arteries alternatively excited at 340 and 380 nm were obtained at a sampling rate of 5 Hz.

[3] = tested on: pressurized rat cerebral arteries; test: Arterial diameter recordings (constriction) in pressurized cerebral arteries; assay type: cell-based
From the text: as §1
as §2, with “Arterial diameter or membrane potential (Vm) of sense and anti-sense treated arteries was measured in the absence (control) or presence of UTP (concentration range: 0.1 to 10 μM).” left out
Statistical analysis. Data are expressed as means±SEM, and n indicates the number of animals. Changes in arterial diameter were measured as a percent constriction calculated as follows: [formula]

[4] = 30 μM UTP in PSS, first exposure
[5] = in the presence of UTP, steady state
[6] = 2 μM thapsigargin, presence of UTP, n=3
[7] = 1 μM nimodipine, extracellular Ca2+ re-introduced in the presence of UTP
[8] = Gd3+ given prior to re-introduction of extracellular Ca2+
[9] = OAG, Sprague Dawley, WKY and SHR rats

With `O=c1ccn([C@@H]2O[C@H](COP(=O)(O)OP(=O)(O)OP(=O)(O)O)[C@@H](O)[C@H]2O)c(=O)[nH]1` [UTP, uridine triphosphate] the “depolarization of arterial SMCs” value ([1]; micromolar concentrations of UTP) was “approximately 20 mV”, the “initial peak increase in arterial wall Ca2+” value ([2]; 30 μM UTP in PSS containing Ca2+, n=8) was 291 ± 45 nM and the “steady state arterial wall [Ca2+]” value [2, 4] was 145 ± 10 nM. The “effect on arterial wall Ca2+ or vessel diameter” value [2] was “neither UTP (FIG. 11 and FIG. 12) nor caffeine (FIG. 11A) affected”, the “arterial wall [Ca2+] in Ca2+ free PSS” value ([2]; continued presence of UTP) was “decline below the resting level” and the “arterial wall Ca2+ after returning extracellular Ca2+” value [2, 5] was 139 ± 15 nM. The “sustained decrease in lumen diameter” value [3, 4] was 49±4%, the “vessel response in Ca2+ free PSS” value ([3]; continued presence of UTP) was “completely relax” and the “decrease in lumen diameter (vasoconstriction) after returning extracellular Ca2+” value [3, 5] was 48±5%.
`C/C=C(/C)C(=O)O[C@H]1C(C)=C2[C@H]([C@@H]1OC(=O)CCCCCCC)[C@@](C)(OC(C)=O)C[C@H](OC(=O)CCC)[C@@]1(O)[C@H]2OC(=O)[C@@]1(C)O` [thapsigargin] was tested, and the “arterial wall Ca2+ when extracellular Ca2+ reintroduced” value [2, 6] was 116 ± 29 nM and the “diameter decrease when extracellular Ca2+ reintroduced” value [3, 6] was 39±6%.
With “5′-GGAGTTCAGACTGGCTAGGG-3′ (SEQ ID: 5) and 5′-GCACACGCAGCCTCCTTCAC-3′ (SEQ ID: 6) (DNA, backbone not given here; further chemistry not fully specified) [TRPC6 antisense, TRPC6 antisense oligodeoxynucleotides designed as previously described (Welsh et al 2002)]” the “UTP-induced depolarization, TRPC6 antisense- versus sense-treated group” value ([1]; exposure to UTP) was “no difference” and the magnitude of constriction ([3]; increasing concentrations of UTP) was “did not affect”.
In the case of `Cn1c(=O)c2c(ncn2C)n(C)c1=O` [caffeine], the “peak [Ca2+]c” value ([2]; 10 mM caffeine, PSS containing Ca2+) was 227 ± 42 nM, the “effect on arterial wall Ca2+ or vessel diameter” value [2] was “neither UTP (FIG. 11 and FIG. 12) nor caffeine (FIG. 11A) affected” and the “% constriction” value ([3]; 10 mM caffeine, PSS containing Ca2+, transient) was 31±6%.
In the case of `COCCOC(=O)C1=C(C)NC(C)=C(C(=O)OC(C)C)C1c1cccc([N+](=O)[O-])c1` (stereo not shown) [nimodipine], the “UTP-induced increase in arterial wall Ca2+” value [2, 7] was 94 ± 10 nM, the “share of extracellular Ca2+ influx entering through the L-type Ca2+ channel” value ([2]; re-admission of Ca2+ in the presence of UTP) was “about 30%” and the UTP-induced vasoconstriction [3, 7] was 29±3%.
In the case of `[Gd+3]` [Gd^3+], the “effect on increase in arterial wall Ca2+ after Ca2+ return in the presence of UTP” value ([2]; 30 μM Gd3+, nimodipine present) was “reverses”, the “arterial wall Ca2+ response to UTP” value [2, 8] was “did not increase” and the “effect on vasoconstriction after Ca2+ return in the presence of UTP” value ([3]; 30 μM Gd3+, nimodipine present) was “reverses”. For the same compound, the “vasoconstriction in response to UTP” value [3, 8] was “nor did vasoconstriction occur”.
In the case of `CCCCCCCC/C=C\CCCCCCCC(=O)OC[C@H](CO)OC(C)=O` [OAG, 1-oleoyl-2-acetyl-sn-glycerol], the “increase in calcium concentration, arteries from SHR compared with normotensive rats” value [2, 9] was “significantly larger increases” and the “constriction of arteries from SHR compared with normotensive rats” value [3, 9] was “significantly larger increases”.
